Where two headings read alike, the source gives them in different places.
Assays:
[1] = system: MCF-10A human mammary epithelial cells; assay: MTT cell viability, normal MCF-10A; format: cell-based; settings: 72 h, mean ± SD
Experimental: (§1) The six cell lines used in this work (MCF-7, MDA-MB-231, HeLa, […], MCF-10A and Hek-293) were purchased from American Type Culture Collection (ATCC, Manassas, VA, USA). MCF-7 human breast cancer cells, estrogen receptor (ER)-positive, were maintained in Dulbecco’s modified Eagle’s medium/nutrient mixture Ham F-12 (DMEM/F12), supplemented with 10% fetal bovine serum (FBS) and 100 U mL^−1 penicillin/streptomycin. MCF-10A human mammary epithelial cells, were cultured in DMEM/F12 medium, supplemented with 5% horse serum (HS, Thermo Fisher Scientific, Milan, Italy), 100 U mL^−1 penicillin/streptomycin, […] hydrocortisone, 20 ng mL^−1 human epidermal growth factor (hEGF), […] insulin, and […] cholera enterotoxin (Sigma–Aldrich, Milan, Italy). MDA-MB-231 human breast cancer cells, known as triple-negative cells (i.e., not overexpressing human epidermal growth factor receptor 2 (HER2), estrogen and progesterone receptors), were cultured in DMEM/F12 supplemented with 5% FBS, 1% L-glutamine and 100 U mL^−1 penicillin/streptomycin. HeLa human epithelial cervix carcinoma cells, estrogen receptor (ER)-negative, and […] human endometrial adenocarcinoma cells, estrogen receptor (ER)-positive, were maintained in minimum essential Eagle’s Medium (MEM), supplemented with 10% FBS, 1% L-glutamine, 100 U mL^−1 penicillin/streptomycin and 1% Non-Essential Amino Acids (NEAA). Hek-293 human embryonic kidney epithelial cells were cultured in DMEM high glucose (4.5 g L^−1), supplemented with 10% FBS, 1% L-glutamine and 100 U mL^–1 penicillin/streptomycin. Cells were maintained at 37 °C in a humidified atmosphere of 95% air and 5% CO2 and periodically screened for contamination.
(§2) Cell viability has been determined using the 3-(4,5-dimethylthiazol-2-y1)-2,5-diphenyltetrazolium bromide (MTT, Sigma–Aldrich, Milan, Italy) assay. Cells have been seeded on 48-well plates and grown in complete medium. Before being treated, cells have been starved in serum free medium for 24 h for allowing cell cycle synchronization. […] Data are representative of three independent experiments; standard deviations (SD) have been shown.

[2] = system: MDA-MB-231 human breast cancer cells; assay: MTT cell viability, MDA-MB-231; format: cell-based; settings: mean ± SD
Experimental: as §1, §2

[3] = system: Hek-293 human embryonic kidney epithelial cells; assay: MTT cell viability, normal Hek-293; format: cell-based; settings: for IC50: normal cells, MTT, 72 h, mean ± SD, read-out: IC50 Hek-293
Experimental: as §1, §2

[4] = system: ISHIKAWA human endometrial adenocarcinoma cells; assay: MTT cell viability, […]; format: cell-based; settings: 72 h, mean ± SD
Experimental: as §1, §2

[5] = system: MCF-7 human breast cancer cells; assay: MTT cell viability, MCF-7; format: cell-based; settings: mean ± SD
Experimental: as §1, §2

[6] = system: HeLa human epithelial cervix carcinoma cells; assay: MTT cell viability, HeLa; format: cell-based; settings: 72 h, mean ± SD
Experimental: as §1, §2

MDA-MB-231 cells [7] = assay: Detection of intracellular ROS (DCF-DA); format: cell-based, human; settings: fluorescence microscopy
Experimental: We used 2,7-dichlorofluorescin diacetate (DCF-DA) as a fluorometric probe for ROS detection and their production was examined under an inverted fluorescence microscope, as already reported.
Cells were grown on glass coverslips until the treatment with compound or menadione (used as positive control) (Sigma–Aldrich, Milan, Italy). Then, cells were incubated with 10 μM 2′-7′-Dichlorofluorescein diacetate (Sigma–Aldrich, Milan, Italy) for 40 min at 37 °C in a 5% CO2 incubator, as previously described. Then, DAPI (0.2 μg mL^−1) counterstain was performed for 10 min at room temperature, in the dark. Cells were then washed three times with cold PBS, adding one drop of mounting solution, then they were observed and imaged under a fluorescence microscope (Leica DM6000; 20× magnification) with excitation/emission wavelength maxima of 490 nm/515 nm (DCF) or 350 nm/460 nm (DAPI). Images are representative of three independent experiments.
Images were acquired at 20× magnification. […] Fields are representative of three separate experiments.

MDA-MB-231 cells [8] = assay: Immunofluorescence of microtubules, MDA-MB-231; format: cell-based, human; settings: at IC50 value, 24 h
Experimental: (§3) Cells were grown on glass coverslips in full media, then serum-deprived for 24 h and exposed to compounds for 24 h (concentration equal to its IC50 value). Then, the cells after PBS-washed, were fixed with cold methanol (15 min/−20 °C) and incubated with primary antibody, diluted in blocking solution (4 °C/overnight), as previously described. The mouse anti-β-Actin (69879) and the rabbit anti-β tubulin (9104) were purchased from Santa Cruz Biotechnology and used at 1:100 dilution. Coverslips were then washed 3 times with PBS, then fixed cells were incubated with the secondary antibody Alexa Fluor® 568 conjugate goat-anti-mouse and Alexa Fluor® 488 conjugate goat-anti-rabbit (1:500, Thermo Fisher Scientific, Waltham, MA, USA). Nuclei were stained using DAPI (Sigma–Aldrich, Mila, Italy) for 10 min at a concentration of 0.2 μg/mL then washed 3 times with PBS. Fluorescence was detected using a fluorescence microscope (Leica DM 6000). LAS-X software was used to acquire and process all images.
Figure 5 Immunofluorescence studies. […] Panels A: DAPI, excitation/emission wavelength 350 nm/460 nm; panels B: β-tubulin (Alexa Fluor® 488) excitation/emission wavelength 490 nm/515 nm; panels C show a merge. Representative fields are shown.

HeLa cells = assay: Immunofluorescence of microtubules, HeLa; format: cell-based, human; settings: at IC50 value, 24 h
Experimental: as §3
Figure 6 Immunofluorescence studies. HeLa cells were treated with AuL4, Vinblastine, Paclitaxel (used at their IC50 values) or with a vehicle (CTRL) for 24 h. After treatment, the cells were methanol fixed, incubated with primary and secondary antibodies, stained with DAPI and observed and imaged under the inverted fluorescence microscope at 20× magnification (see Materials and methods). […] Panels A: DAPI, excitation/emission wavelength 350 nm/460 nm; panels B: β-tubulin (Alexa Fluor® 488) excitation/emission wavelength 490 nm/515 nm; panels C show a merge. Representative fields are shown.

tubulin = assay: In vitro tubulin-polymerization assay (turbidity at 350 nm); format: biochemical; settings: 10 µM; for final optical density value at 350 nm (OD350): vehicle (DMSO) about 0.43
Experimental: Tubulin-polymerization inihibition was measured using in vitro Tubulin-Polymerization Assay Kit purchased fromEMD Millipore Corporation. Polymerization reactions occur in 70 µL final volumes, of which 60 µL is the 60 µM tubulin in 1 × PB-GTP and 10 µL is the test substance dissolved in 1 × PB-GTP. […] These reactives were combined in 96-well plate on ice. After the plate was transferred into the spectrophotometer pre-warmed at 37 °C and the turbidity variation was measured every 30 s at 350 nm for 90 min. The plate was shaked for 10 s before each measurement. Turbidity (absorbance) readings were used to calculate the extent of polymerization [% inhibition = (1−A350 sample/A350 control) × 100].
Figure 4 Tubulin-polymerization assay. […] Two positive control molecules, Paclitaxel and Vinblastine, were used as tubulin-stabilizing and tubulin-destabilizing agents, respectively. DMSO was used as a negative control. Assembly of tubulin into microtubules was determined by measuring the turbidity at 350 nm for 3600 s at 37 °C. All the compounds were used at a concentration of 10 μM.

OC(Cn1cc[n+](CC(O)c2ccccc2)[c]1[Ag-][c]1n(CC(O)c2ccccc2)cc[n+]1CC(O)c1ccccc1)c1ccccc1.[I][Ag-][I] (mixture of isomers) [AgL6]
IC50 [1]: 143.4 ± 0.8 µM
IC50 ([2]; 72 h): 57.9 ± 0.5 µM
IC50 [3]: > 200 µM
IC50 [4]: 26.7 ± 0.5 µM
IC50 ([5]; 72 h): 29.7 ± 0.3 µM
IC50 [6]: 47.7 ± 0.4 µM

C[n+]1ccn(CC(O)c2ccccc2)[c]1[Ag-][c]1n(CC(O)c2ccccc2)cc[n+]1C.[I][Ag-][I] (racemic) [AgL3]
IC50 MDA-MB-231 ([2]; 72 h): completely inactive

C[n+]1c(Cl)c(Cl)n(CC(O)c2ccccc2)[c]1[Ag-][c]1n(CC(O)c2ccccc2)c(Cl)c(Cl)[n+]1C.[I][Ag-][I] (racemic) [AgL7, bis-[4,5-dichloro-(N-methyl-N’(2-hydroxy-2-phenyl)ethyl-imidazole-2-ylidene]silver(I)]^+[di-iodide-silver]^−]
IC50 [1]: > 200 µM
IC50 ([2]; 72 h): 3.22 ± 1.2 µM
IC50 [3]: > 200 µM
IC50 [4]: 6.55 ± 0.9 µM
IC50 ([5]; 72 h): 10.5 ± 0.8 µM
IC50 [6]: 9.76 ± 0.6 µM

C[n+]1ccn(CC(O)c2ccccc2)[c]1[Au-][c]1n(CC(O)c2ccccc2)cc[n+]1C.[Cl][Au-][Cl] (racemic) [AuL3]
IC50 ([2]; 72 h): 3.43 ± 1 µM

OCc1ccc(-n2cc[n+](CC(O)c3ccccc3)[c]2[Au-][Br])cc1 (racemic) [AuL5]
IC50 [1]: > 200 µM
IC50 ([2]; 72 h): 31.7 ± 0.8 µM
IC50 [3]: > 200 µM
IC50 [4]: 54.9 ± 1 µM
IC50 ([5]; 72 h): 18.2 ± 0.5 µM
IC50 [6]: 44.5 ± 0.9 µM

OCc1ccc(-n2ccn(CC(O)c3ccccc3)[c]2=[Ag][Br])cc1 (stereo not drawn) [AgL5]
IC50 [1]: > 200 µM
IC50 ([2]; 72 h): > 200 µM
IC50 [3]: > 200 µM
IC50 [4]: > 200 µM
IC50 ([5]; 72 h): > 200 µM
IC50 [6]: > 200 µM

OC(Cn1ccn(CC(O)c2ccccc2)[c]1=[AuH]=[c]1n(CC(O)c2ccccc2)ccn1CC(O)c1ccccc1)c1ccccc1.[Cl][AuH][Cl] (stereo not drawn) [AuL6]
IC50 [1]: 158.8 ± 1 µM
IC50 ([2]; 72 h): 53.7 ± 0.7 µM
IC50 [3]: > 200 µM
IC50 [4]: 12.6 ± 0.3 µM
IC50 ([5]; 72 h): 9.38 ± 0.2 µM
IC50 [6]: 98.6 ± 1.2 µM

N.N.[Cl][Pt][Cl] [Cis-platin, Cisplatin, reference compound]
IC50 [1]: 81.3 ± 1.2 µM
IC50 ([2]; 72 h): 28.7 ± 1 µM
IC50 [3]: 16.8 ± 0.4 µM
IC50 [4]: 15.1 ± 0.8 µM
IC50 ([5]; 72 h): 35.8 ± 1.3 µM
IC50 [6]: 15.7 ± 1.1 µM

OCc1ccc(-[n+]2ccn(CC(O)c3ccccc3)c2)cc1 (stereo not drawn) [L5, N-[4-(hydroxymethyl)phenyl]-N’-[(2-hydroxy-2-phenyl)ethyl]-imidazolium bromide]
IC50 ([1]; Homo sapiens, MCF-10A): > 200 µM
IC50 ([2]; Homo sapiens, MDA-MB-231, 72 h): > 200 µM
IC50 ([3]; Homo sapiens, HEK293): > 200 µM
IC50 ([4]; Homo sapiens, Ishikawa): > 200 µM
IC50 ([5]; Homo sapiens, MCF7, 72 h): > 200 µM
IC50 ([6]; Homo sapiens, HeLa): > 200 µM

OC(Cn1cc[n+](CC(O)c2ccccc2)c1)c1ccccc1 (stereo not drawn) [L6]
IC50 ([1]; Homo sapiens, MCF-10A): > 200 µM
IC50 ([2]; Homo sapiens, MDA-MB-231, 72 h): > 200 µM
IC50 ([3]; Homo sapiens, HEK293): > 200 µM
IC50 ([4]; Homo sapiens, Ishikawa): > 200 µM
IC50 ([5]; Homo sapiens, MCF7, 72 h): > 200 µM
IC50 ([6]; Homo sapiens, HeLa): > 200 µM

C[n+]1cn(CC(O)c2ccccc2)c(Cl)c1Cl (stereo not drawn) [L7]
IC50 [1]: > 200 µM
IC50 ([2]; 72 h): > 200 µM
IC50 [3]: > 200 µM
IC50 [4]: > 200 µM
IC50 ([5]; 72 h): > 200 µM
IC50 [6]: > 200 µM

O=c1c(O)c(-c2ccc(O)c(O)c2)oc2cc(O)cc(O)c12 [Quercetin, reference compound]
increase of the Hek-293 cells viability vs AuL7 alone ([3]; pre-treatment for 4 h with Quercetin (at 50 μM), then AuL7): about 1.5 fold

CC1=CC(=O)c2ccccc2C1=O [menadione, reference compound]
ROS production (DCF green fluorescence) (MDA-MB-231 cells [7]): increased ROS production

CC(=O)O[C@H]1C(=O)[C@@]2(C)[C@H]([C@H](OC(=O)c3ccccc3)[C@]3(O)C[C@H](OC(=O)[C@H](O)[C@@H](NC(=O)c4ccccc4)c4ccccc4)C(C)=C1C3(C)C)[C@]1(OC(C)=O)CO[C@@H]1C[C@@H]2O [paclitaxel]
effect on microtubule network, MDA-MB-231 (MDA-MB-231 cells [8]): microtubules non-reversible polymerization
effect on microtubule network, HeLa (HeLa cells): microtubules non-reversible polymerization
final optical density value at 350 nm (OD350) (tubulin; 37 °C): about 0.51

CC[C@]1(O)C[C@@H]2CN(CCc3c([nH]c4ccccc34)[C@@](C(=O)OC)(c3cc4c(cc3OC)N(C)[C@H]3[C@@](O)(C(=O)OC)[C@H](OC(C)=O)[C@]5(CC)C=CCN6CC[C@]43[C@@H]65)C2)C1 [vinblastine, reference compound]
effect on microtubule network, MDA-MB-231 (MDA-MB-231 cells [8]): microtubules disorganization
effect on microtubule network, HeLa (HeLa cells): microtubules disorganization
effect on tubulin-polymerization reaction (tubulin): tubulin-polymerization inhibition
time to reach the steady state of polymerization curve (tubulin; 37 °C): about 40 min
final optical density value at 350 nm (OD350) (tubulin; 37 °C): less than the half of the vehicle reaction

Source: paper PMC7281280, “Is the Way to Fight Cancer Paved with Gold? Metal-Based Carbene Complexes with Multiple and Fascinating Biological Features” (Pharmaceuticals, 2020)
